“Also recorded” adds a separate entry of the source. Marks after values point to notes of the source that are not given here. Ends that are not written are not given here.
What was measured:
[1] = test system: S180 sarcoma; test: Growth of transplanted S180 sarcoma; format: in vivo, BALB/c mice; settings: controls: IL-2, IFN-γ 3 × 10^5 IU/kg, cyclophosphamide 20 mg/kg; saline 1.29 ± 0.50
Description: (§1) Intraperitoneal injection, once per day. […] Treatment of all groups with testing substance lasted for 30 days or until the animal died unless otherwise specified.
Stock S180 sarcoma cells were incubated in DMEM/F12 medium supplemented with 10% fetal bovine serum, 37° C., 5% CO2 for 72 hrs, then washed 3-4 times with Hank's solution at room temperature. Adjust the cell concentration to 1-2×10^9 per litre with Hank's solution. […] The mice were killed by cervical vertebra dislocation. Vigorously growing and non-disrupted tumor masses were harvested and washed clean with sterile saline. The tissue was dispersed in saline to a homogenous cell suspension, in a ratio of 1 g tissue to 4 ml saline. The sarcoma bearing mice model was prepared with an injection of 0.2 ml cell suspension through the armpit. Administration of test substance treatment started as described in section Method 1.
2.2 The Tumor Growth Inhibition Index was Calculated According to the Following Formula: Tumor growth inhibition index=(mean tumor weight of control group−mean tumor weight of treatment group)÷mean tumor weight of control group 3.

[2] = test system: L1210 leukemia; test: Survival of mice with transplanted L1210 leukemia; format: in vivo, DBA/2 mice; settings: controls: IL-2, IFN-γ 3 × 10^5 IU/kg, cyclophosphamide 20 mg/kg; saline 16.6 ± 5.6
Description: as §1
Stock L1210 cells were incubated in DMEM/F12 medium supplemented with 10% fetal bovine serum, 37° C./5% CO2 for 72 hrs, then washed 3-4 times with Hank's solution, and adjusted to […]. 0.1 ml of the cell suspension was implanted into the abdominal cavity of several healthy DBA mice for 6-8 days. The mice were then killed by cervical vertebra dislocation and their ascitic fluid collected aseptically. The cell concentration of the collected ascitic fluid was adjusted to 1×10^5 per ml with Hank's solution. 0.1 ml of the cell suspension was implanted into each of the testing animal and the survival data of the animals recorded. Treatment started in the testing animals as described in section Method 1. Mean survival day was obtained by the Kaplan-meier method in the Survival option of the SPSS software. If the animal survived longer than the experiment, the survival days was entered as the duration of the experiment. The survival index was calculated according to the following formula: Survival index=(mean survival days of treatment group−mean survival days of control group)÷mean survival days of control group 6. The Effect of Peptides on the Humoral Immunity of C57BL/6 Mice Bearing Transplanted B16 Melanoma and that on the Metastatic Potential of the Inoculated Melanoma Cells

[3] = test system: Masugi nephritis rat model; test: Masugi nephritis rat model; settings: for urine protein level: 24 h urine; for spleen index / Serum creatinine level: after three weeks of treatment; for spleen index: placebo 4.8 ± 1.1, normal 2.4 ± 0.1; for Serum creatinine level: placebo 265 ± 212, normal 80 ± 1; for renal pathological microscopic examination: peptides 50 μg/kg/day i.p. 3 weeks, 6 heaviest kidneys per group
[4] = test system: anti-SRBC antibody; test: Sheep Red Blood Cell (SRBC) hemolysis test, antibody formation; format: in vivo, BALB/c mice; settings: for anti-SRBC antibody formation, X ± SD (Unit): healthy mice, SRBC day 12 (IFN-γ, IL-2 3×10^5 IU/kg/day), saline 32 ± 7
Description: Sheep red blood cells (SRBC) were prepared by collecting blood from cervical vein and put into a sterile flask with glass beads. The flask was shaken for 3 minutes and the blood then mixed with Alsever solution (glucose 2.05 g, NaCl 0.4 g, […] 0.8 g, adjust to 100 ml with distilled water) and stored at 4° C. Immediately before use, samples were centrifuged at 130 g, 5 minutes to collect the SRBC. The cells were washed two times by re-suspension and centrifugation in normal saline. Then the cell pellet was collected by centrifugation at 180 g for 10 minutes and re-suspended in saline to make the final working SRBC suspension, 2% (v/v).
Complement was prepared by adding 10 volumes of fresh Cavy serum into one volume centrifuge packed SRBC, and then gently shaking for 30 minutes at 4° C. The SRBC was removed by centrifugation at 200 g for 10 minutes. 10 volumes of normal saline were added to obtain the working complement solution.
The test substances were administered as described in section 1.1, plus intraperitoneal injection 0.2 ml SRBC per mouse on day 12. On the day after the last test substance administration (day 16), blood was collected from the eye canthus and left at room temperature for one hour for serum exudation. After centrifugation at 200 g for 10 minutes, the serum was diluted by 500 times with normal saline.
To 1 ml diluted mouse serum of each mouse, 0.5 ml SRBC suspension was added. Ice cold. Then 1 ml working complement solution was added and incubated at 37° C. water bath for 10 minutes. Reactions were terminated by ice cold. Samples were then centrifuged at 200 g for 10 minutes to obtain the supernatant.
To 1 ml of this supernatant, 3 ml Drabkin solution was added and left at room temperature for 10 minutes. OD540 nm was obtained.
Reference OD540 nm was obtained by mixing 0.25 ml SRBC suspension with Drabkin solution to 4 ml and placed at room temperature for 10 minutes before OD540 nm was taken.
Sample serum index=(OD540 nm of test sample÷reference OD540 nm)×500

[5] = test system: NK cell; test: NK cell cytotoxicity activity test (spleen cells of treated mice against YAC-1 target cells, MTT); format: in vivo, BALB/c mice
Description: The above substances were all dissolved in 0.5 ml saline and injected intraperitoneal (i.p.) for 15 continuous days, once per day.
Ten mice per group. The day after the last test substance administration, the mice were sacrificed by cervical dislocation. The spleen was isolated aseptically and manually dispersed in cold D-Hank's solution using an injection needle. The dispersed cell suspension was further sieved through a 100 gauge 150 μm diameter stainless steel sieve. After centrifugation at 200 g for 10 minutes, the supernatant was discarded. The cell pellet was re-suspended in 10 volume of Tris-NH4Cl buffer and then kept standing still for 10 minutes at room temperature. The suspended cells were collected by centrifugation at 150 g for 10 minutes. The cells were washed 2-4 times with cold D-Hank's solution by re-suspending and collecting by centrifugation with condition as described above. The washed cells were then diluted to the desired cell densities by RPMI-1640 culture medium, containing 10% fetal bovine serum.
Mice spleen cells were prepared to 4×10^6/ml as described in section 1.1 above. Target cells YAC-1 were brought to log phase and adjusted to 1×10^5/ml. Using a 96 wells cell culture plate, […] were added to the control well containing only the spleen cells; […] and 100 μl culture medium were added to the control well containing only target cells; 100 μl mouse spleen cells and 100 μl target cells were added to the NK activity assay well. Three parallel sets of the above were prepared per mouse.
Samples were centrifuged at 150 g for 10 minutes to collect the cells. The supernatant was discarded and 50 μl/well MTT of 1 mg/ml was added. The reaction-mixture was then shaken for 2 minutes, and incubated at 37° C., 5% CO2 for 4 hours. The supernatant was discarded after centrifugation at 150 g for 10 minutes. […] 40 mM HCl-2-propanol was added and shaken for 3 minutes. An ELISA reader was used to obtain OD570 nm of each well referenced at 630 nm.

[6] = test system: mononuclear phagocyte; test: Carbon particle clearance test, phagocytosis function; format: in vivo, BALB/c mice; design: key to X ± SD (phagocytotic index): α = cube root of K × (body weight ÷ liver+spleen weight); settings: for X ± SD (phagocytotic index): healthy mice, saline 5.1 ± 0.6; for effect on the phagocytotic activity of mononuclear phagocyte (summary): statistically significant difference from saline in any of the dosage groups 0.5-500 μg/kg/day
Description: On the next day after the last test substance administration (day 16), the mice were injected with […] body weight India ink (5 times dilution with normal saline) from the tail vein.
One minute and five minutes after Indian ink injection, 20 μl blood was obtained from the eye canthus with a heparinized tubing. The blood was mixed with 2 ml 0.1% w/v Na2CO3 and then OD680 nm obtained. The outline clear index K was calculated by the following formula: K=(lgA1−lgA2)÷(t2−t1)
(§2) One day after the last test substance administration (day 16), the liver, spleen, and thymus gland were separated and blotted dry with filter paper and weighed. The phagocytosis index α was calculated as below: α=(^3√{square root over ( )}K)(W÷WLS)

[7] = test system: spleen; test: Immunity organ weight test, spleen index; format: in vivo, BALB/c mice
Description: as §2
Spleen index (%)=(spleen weight/body weight)×100%

[8] = test system: thymus gland; test: Immunity organ weight test, thymus gland index; format: in vivo, BALB/c mice; settings: for weight of thymus gland (thymus gland index), X ± SD (%): healthy mice, saline 0.12 ± 0.02; for effect on the weight of the thymus gland (summary): statistically significant difference from saline in any of the dosage groups 0.5-500 μg/kg/day
Description: as §2
Thymus gland index (%)=(thymus weight/body weight)×100%

[9] = Week 1, peptides 50 μg/kg/day, hydrocortisone 3.3 mg/kg/day i.p., placebo 22.9 ± 22, normal 1.7 ± 1.3
[10] = Week 2, peptides 50 μg/kg/day i.p., hydrocortisone dose halved after first week, placebo 17.2 ± 14.5, normal 2.3 ± 1.1
[11] = Week 3, peptides 50 μg/kg/day i.p., hydrocortisone dose halved after first week, placebo 20.2 ± 29.0, normal 0.4 ± 0.2
[12] = peptide 0.5 μg/kg/day i.p. 15 days
[13] = statistically significant difference from saline in any of the dosage groups 0.5-500 μg/kg/day
[14] = peptide 50 μg/kg/day i.p. 15 days (IFN-γ, IL-2 3×10^5 IU/kg/day)
[15] = peptide 0.5 μg/kg/day i.p. 15 days (IFN-γ, IL-2 3×10^5 IU/kg/day)
[16] = peptide 5 μg/kg/day i.p. 15 days (IFN-γ, IL-2 3×10^5 IU/kg/day)

Compound	urine protein level [3, 9] [mg]	urine protein level [3, 10] [mg]	urine protein level [3, 11] [mg]	spleen index ([3]; peptides 50 μg/kg/day i.p.)	Serum creatinine level ([3]; peptides 50 μg/kg/day i.p.) [µmol/L]	renal pathological microscopic examination [3]	anti-SRBC antibody formation, X ± SD (Unit) [4, 12] [Unit]	effect on the phagocytotic activity of mononuclear phagocyte (summary) [6]	weight of thymus gland (thymus gland index), X ± SD (%) [8, 15]	weight of thymus gland (thymus gland index), X ± SD (%) [8, 16]	weight of thymus gland (thymus gland index), X ± SD (%) [8, 14]	effect on the weight of the thymus gland (summary) [8]	also measured
O=P1(N(CCCl)CCCl)NCCCO1 (stereo not shown) [Cyclophosphamide, reference compound]	–	–	–	–	–	–	–	–	–	–	–	–	Tumor weight [1]: 0.68 ± 0.32 g; Survival days [2]: 24.0 ± 5.3 days
C[C@]12CCC(=O)C=C1CC[C@@H]1[C@@H]2[C@@H](O)C[C@@]2(C)[C@H]1CC[C@]2(O)C(=O)CO [hydrocortisone, Hydrocortisone, reference compound]	3.1 ± 2.0	7.5 ± 7.7	7.6 ± 7.1	4.5 ± 1.4 ×10^−3	239 ± 107	–	–	–	–	–	–	–	growth rate of the rats ([3]; peptides 50 μg/kg/day, hydrocortisone 3.3 mg/kg/day i.p.): slower growth rate than normal
Phe Gln Gln Met (FQQM; printed: Phe Gln Gln Met) [CMS030]	5.4 ± 3.4	9.5 ± 16.2	2.4 ± 1.5	3.0 ± 0.5 ×10^−3	93 ± 1	all pathological parameters of all rats were normal	19 ± 7	enhance	0.24 ± 0.05*^@^ %	0.23 ± 0.07*^ %	0.25 ± 0.04*^@^ %	increase	anti-SRBC antibody formation, X ± SD (Unit) ([4]; peptide 5 μg/kg/day i.p. 15 days): 158 ± 37*^@^ Unit; anti-SRBC antibody formation, X ± SD (Unit) ([4]; peptide 50 μg/kg/day i.p. 15 days): 141 ± 33*^@^ Unit; effect on the synthesis of anti-SRBC antibody upon the antigenic challenge (summary) [4, 13]: enhance; also recorded: inhibit; NK cell cytotoxic activity, X ± SD (%) ([5]; healthy mice, peptide 500 μg/kg/day i.p. 15 days (IFN-γ, IL-2 3×10^5 IU/kg/day), saline 63 ± 9): 91 ± 5*^@^ %; effect on the cytotoxic activity of NK cells (summary) [5, 13]: increase; X ± SD (phagocytotic index) [6, 14]: 6.3 ± 0.5; weight of spleen (spleen index), X ± SD (%) ([7]; Table 30, healthy mice, peptide 5 μg/kg/day i.p. 15 days, saline 0.53 ± 0.05): 0.64 ± 0.09 %; effect on the weight of the spleen (summary) [7, 13]: increase; weight of thymus gland (thymus gland index), X ± SD (%) ([8]; peptide 500 μg/kg/day i.p. 15 days (IFN-γ, IL-2 3×10^5 IU/kg/day)): 0.30 ± 0.03*^@^ %
VGMGQKDSY	7.0 ± 3.7	5.5 ± 7.9	3.3 ± 3.4	3.3 ± 0.8 ×10^−3	67 ± 1	all pathological parameters of all rats were normal	3 ± 1	enhance	0.20 ± 0.03 %	0.24 ± 0.04*^@^ %	0.23 ± 0.02*^@^ %	increase	anti-SRBC antibody formation, X ± SD (Unit) ([4]; peptide 500 μg/kg/day i.p. 15 days): 66 ± 16 Unit; X ± SD (phagocytotic index) [6, 16]: 6.7 ± 1.2

— patent US20060167229A1, “Biologically active peptide conjugates” (priority 2002, published 2006)
